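96-well plates; 48 h exposure; 5 concentrations. Endpoints by linear interpolation between flanking doses. Not reached: highest tested concentration assigned. GI50: concentration for 50% inhibition of growth. The concentration for full growth arrest is given as TGI.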
Assays:
Assay in all cases: NCI-60 cell line screen, 48 h
[1] = system: A549 NSCLC
[2] = system: UACC-257 melanoma
[3] = system: HCC-2998 colon
[4] = system: U251 CNS
[5] = system: HCT-15 colon
[6] = system: IGROV1 ovarian
[7] = system: MALME-3M melanoma
[8] = system: ACHN renal
[9] = system: UACC-62 melanoma
[10] = system: T-47D breast
[11] = system: MDA-MB-435
[12] = system: OVCAR-5 ovarian
[13] = system: HL-60(TB) leukemia
[14] = system: LOX IMVI melanoma

Compound	TGI [1]	TGI [2]	TGI [3]	TGI [4]	TGI [5]	TGI [6]	TGI [7]	TGI [8]	TGI [9]	TGI [10]	TGI [11]	TGI [12]	TGI [13]	TGI [14]	GI50 [14]
CCOC(=O)NC(=S)NC(C)c1ccccc1 (stereo not drawn)	> 100 µM	> 100 µM	> 100 µM	> 100 µM	> 100 µM	> 100 µM	> 100 µM	> 100 µM	> 100 µM	> 100 µM	> 100 µM	> 100 µM	–	–	–
C=CCC1C2CCC(O[Si](C(C)C)(C(C)C)C(C)C)(C(C(=O)OC)C2)C1O (stereo not drawn)	> 100 µM	> 100 µM	–	> 100 µM	> 100 µM	> 100 µM	–	> 100 µM	> 100 µM	> 100 µM	> 100 µM	> 100 µM	36.7 µM	–	–
CSc1nc(C)c(CCCl)c(Cl)n1	> 100 µM	> 100 µM	> 100 µM	> 100 µM	> 100 µM	> 100 µM	> 100 µM	> 100 µM	> 100 µM	> 100 µM	> 100 µM	–	–	> 100 µM	–
Nc1cc(N)c(N=Nc2cccc3c(S(=O)(=O)O)cccc23)cc1N=Nc1cc([N+](=O)[O-])ccc1O	67.9 µM	74.5 µM	79.9 µM	> 100 µM	61 µM	> 100 µM	64 µM	78.1 µM	59.2 µM	> 100 µM	> 100 µM	93.9 µM	–	37.1 µM	–
CC(=O)C1C(=O)C(=O)N(c2ccc(Br)cc2)C1=O (stereo not drawn)	> 100 µM	> 100 µM	> 100 µM	> 100 µM	> 100 µM	> 100 µM	–	> 100 µM	> 100 µM	–	> 100 µM	> 100 µM	> 100 µM	> 100 µM	–
C#CC(O)Cc1ccc(OC)c2occc12 (stereo not drawn)	> 100 µM	> 100 µM	> 100 µM	> 100 µM	> 100 µM	> 100 µM	> 100 µM	> 100 µM	> 100 µM	> 100 µM	> 100 µM	> 100 µM	–	> 100 µM	–
Cc1ccc(-n2cc(-c3ccc(Cl)cc3)c3c2N=CN2NC(c4cccs4)=NC32)cc1 (stereo not drawn)	> 100 µM	> 100 µM	> 100 µM	18.1 µM	> 100 µM	34.7 µM	> 100 µM	19.2 µM	68.6 µM	–	> 100 µM	51 µM	45.1 µM	> 100 µM	–
Cc1[nH]c2ccccc2c1C1=CC(=O)N(c2ccccc2)C1=O	> 100 µM	61.5 µM	7.38 µM	47.7 µM	34.5 µM	> 100 µM	41.9 µM	> 100 µM	26.9 µM	–	> 100 µM	> 100 µM	39 µM	18.3 µM	–
O=C(O)CCc1nc2cc3ccccc3cc2[nH]c1=O	> 100 µM	> 100 µM	> 100 µM	> 100 µM	> 100 µM	> 100 µM	–	> 100 µM	> 100 µM	> 100 µM	> 100 µM	> 100 µM	–	> 100 µM	–
COc1nc(OC)nc(Sc2ccc(Sc3ccc(Sc4nc(OC)nc(OC)n4)cc3)cc2)n1	> 100 µM	> 100 µM	> 100 µM	> 100 µM	> 100 µM	> 100 µM	> 100 µM	> 100 µM	> 100 µM	–	–	> 100 µM	> 100 µM	> 100 µM	–
CCc1n[nH]c(=S)n1/N=C\c1ccc(-c2ccccc2[N+](=O)[O-])o1	> 100 µM	> 100 µM	–	> 100 µM	> 100 µM	> 100 µM	> 100 µM	> 100 µM	> 100 µM	> 100 µM	39.4 µM	> 100 µM	> 100 µM	> 100 µM	–
Cc1ccc(Nc2cn(COCc3ccccc3)c(=O)[nH]c2=O)cc1	> 100 µM	> 100 µM	> 100 µM	> 100 µM	> 100 µM	> 100 µM	–	> 100 µM	> 100 µM	–	> 100 µM	> 100 µM	> 100 µM	> 100 µM	–
COc1cc2c(cc1OCCCCN1CCN(CCCCOc3cc4c(cc3OC)C(=O)N3CCC[C@H]3C=N4)CC1)N=C[C@@H]1CCCN1C2=O	> 100 µM	0.676 µM	–	> 100 µM	–	–	–	> 100 µM	0.0347 µM	3.53 µM	0.165 µM	0.163 µM	–	> 100 µM	0.0267 µM
COC1C(OC(N)=O)C(O)C(Oc2ccc3c(O)c(NC(=O)c4ccc(O)c(CC=C(C)C)c4)c(=O)oc3c2C)OC1(C)C (stereo not drawn)	> 100 µM	> 100 µM	> 100 µM	> 100 µM	> 100 µM	> 100 µM	> 100 µM	> 100 µM	> 100 µM	> 100 µM	> 100 µM	> 100 µM	–	–	–
CC#Cc1c(C#CC)c(OC)c2c(c1OC)C(=O)c1ccccc1C2=O	> 100 µM	> 100 µM	> 100 µM	48 µM	> 100 µM	> 100 µM	> 100 µM	34.8 µM	> 100 µM	–	–	> 100 µM	> 100 µM	> 100 µM	–
COC(=O)CNCC1OC2OC(C)(C)OC2C1N=[N+]=[N-] (stereo not drawn)	> 100 µM	> 100 µM	–	> 100 µM	> 100 µM	> 100 µM	–	> 100 µM	> 100 µM	> 100 µM	> 100 µM	> 100 µM	> 100 µM	> 100 µM	–
O=C1/C(=C/c2ccc(Cl)cc2)Sc2scc(-c3cccc([N+](=O)[O-])c3)[n+]21	> 68.5 µM	10.9 µM	10.5 µM	23.6 µM	4.66 µM	7.48 µM	–	6.27 µM	13.5 µM	> 100 µM	13.2 µM	51.3 µM	–	–	–
CNc1ncnc2c1cnn2Cc1cn(CCCCO)nn1	> 100 µM	> 100 µM	> 100 µM	> 100 µM	> 100 µM	> 100 µM	> 100 µM	> 100 µM	> 100 µM	> 100 µM	> 100 µM	> 100 µM	–	> 100 µM	–
